Measurements published in the supplement of paper PMC10307832.

Legend:
Test in all cases: relative viability (nuclei count vs DMSO), 5 days (fraction); higher = more cells survive
[1] = compound: C1CNCCC1C2=CC(=NN2)C3=CC=NC=C3 + CC(=O)c1c(C)c2cnc(Nc3ccc(N4CCNCC4)cn3)nc2n(C2CCCC2)c1=O [Palbociclib] (partner 0.5 µM)
Procedure, shortened: (§1)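 After 5 days of treatment, lung cancer cells in 1536-well plates were fixed and stained in a single step (final 0.05% Triton X-100, 1% formaldehyde, 1 ug/ml Hoechst) and their nuclei counted on 4× images. Treatment had been applied by pin tool the day after seeding as one drug alone or as a fixed anchor-drug dose with five library-drug doses (not always all listed) in √10 steps. Relative viability is the nuclei count of treated wells divided by that of vehicle wells, and values are medians of duplicate plates.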

[2] = compound: C[C@@H](N)c1ccc(C(=O)Nc2ccnc3[nH]ccc23)cc1 + O=C(c1cc(Cc2n[nH]c(=O)c3ccccc23)ccc1F)N1CCN(C(=O)C2CC2)CC1 [Olaparib] (partner 8 µM)
Procedure, shortened: as §1

[3] = compound: C[C@@H](N)c1ccc(C(=O)Nc2ccnc3[nH]ccc23)cc1 + CS(=O)(=O)CCNCc1ccc(-c2ccc3ncnc(Nc4ccc(OCc5cccc(F)c5)c(Cl)c4)c3c2)o1 [Lapatinib] (partner 2 µM)
Procedure, shortened: as §1

[4] = compound: C1CNCCC1C2=CC(=NN2)C3=CC=NC=C3 + CS(=O)(=O)N1CCN(Cc2cc3nc(-c4cccc5[nH]ncc45)nc(N4CCOCC4)c3s2)CC1 [Pictilisib] (partner 1 µM)
Procedure, shortened: as §1

| Cell Line | relative viability ([1]; first compound 0.08 µM) | relative viability ([1]; first compound 0.8 µM) | relative viability ([1]; first compound 2.53 µM) | relative viability ([1]; first compound 8 µM) | relative viability ([2]; first compound 0.04 µM) | relative viability ([2]; first compound 0.1265 µM) | relative viability ([2]; first compound 0.4 µM) | relative viability ([2]; first compound 1.265 µM) | relative viability ([2]; first compound 4 µM) | relative viability ([3]; first compound 0.04 µM) | relative viability ([3]; first compound 0.1265 µM) | relative viability ([3]; first compound 0.4 µM) | relative viability ([3]; first compound 1.265 µM) | relative viability ([3]; first compound 4 µM) | relative viability ([4]; first compound 0.08 µM) | relative viability ([4]; first compound 0.8 µM) | relative viability ([4]; first compound 2.53 µM) | relative viability ([4]; first compound 8 µM) |
| --- | --- | --- | --- | --- | --- | --- | --- | --- | --- | --- | --- | --- | --- | --- | --- | --- | --- | --- |
| NCI-H1792 | 0.636 | 0.702 | 0.718 | 0.588 | 0.419 | 0.523 | 0.564 | 0.383 | 0.319 | 0.923 | 0.922 | 0.966 | 0.607 | 0.783 | 0.223 | 0.246 | 0.345 | 0.304 |
| NCI-H596 | – | – | – | – | 0.63 | 0.698 | 0.723 | 0.749 | 0.763 | 1.29 | 1.08 | 1.03 | 0.955 | 1.07 | 0.407 | 0.425 | 0.392 | 0.407 |
| RERF-LC-KJ | 0.989 | 1.14 | 1.11 | 1.06 | 0.879 | 0.906 | 0.894 | 0.934 | 0.86 | 0.906 | 0.837 | 0.931 | 0.902 | 0.869 | 0.458 | 0.619 | 0.715 | 0.625 |
| NCI-H322M | 0.489 | 0.425 | 0.468 | 0.508 | 0.862 | 0.944 | 0.901 | 1.01 | 0.979 | 0.807 | 0.63 | 0.665 | – | 0.824 | 0.423 | 0.482 | 0.523 | 0.479 |
| COR-L 105 | 0.394 | 0.405 | 0.421 | 0.472 | 0.605 | 0.636 | 0.763 | 0.717 | 0.564 | 0.305 | 0.355 | 0.376 | 0.257 | 0.364 | 0.421 | 0.429 | 0.398 | 0.396 |
| NCI-H1993 | 0.704 | 0.737 | 0.698 | 0.738 | 1.4 | 1.14 | – | 1.02 | – | 0.791 | 0.858 | – | 0.776 | 0.87 | 0.802 | 0.806 | 0.933 | 0.623 |
| NCI-H1437 | 0.356 | 0.335 | 0.352 | 0.368 | 0.649 | 0.678 | 0.636 | 0.632 | 0.645 | 0.842 | 0.782 | 0.825 | 0.772 | 0.737 | 0.443 | 0.485 | 0.45 | 0.528 |
| NCI-H838 | 0.225 | 0.194 | 0.249 | 0.247 | 0.789 | 0.826 | 0.658 | 0.397 | 0.283 | 0.683 | 0.922 | 0.708 | 0.445 | 0.427 | 0.439 | 0.491 | 0.471 | 0.461 |
| NCI-H1666 | 0.657 | 0.662 | 0.667 | 0.669 | 0.786 | 0.764 | 0.856 | 0.825 | 0.906 | 0.724 | 0.618 | 0.967 | 0.835 | 0.928 | 0.463 | 0.335 | 0.641 | 0.463 |
| NCI-H1944 | 0.267 | 0.326 | 0.353 | 0.359 | 0.453 | 0.396 | 0.434 | 0.432 | 0.401 | 0.759 | 0.841 | 0.769 | – | 0.699 | 0.377 | 0.341 | 0.334 | 0.341 |
| NCI-H2023 | 0.315 | 0.379 | 0.418 | 0.386 | 0.534 | 0.497 | 0.516 | 0.503 | 0.495 | 0.844 | 0.737 | 1.15 | 0.0713 | 0.99 | 0.251 | 0.228 | 0.27 | 0.295 |
| EBC-1 | – | – | – | – | 0.847 | 0.713 | 0.678 | 0.683 | 0.583 | 0.265 | 0.239 | 0.219 | 0.179 | 0.171 | 0.447 | 0.425 | 0.364 | 0.409 |
| NCI-H1563 | – | – | – | – | – | – | – | – | – | 0.805 | 0.945 | 0.854 | 0.446 | 1.05 | 0.575 | 0.662 | 0.592 | 0.611 |
| NCI-H1648 | 0.266 | 0.352 | – | 0.243 | 1.01 | 1.02 | 1.93 | 1.71 | 1.29 | – | – | – | – | – | – | – | – | – |
| NCI-H1299 | – | – | – | – | 0.91 | 0.987 | 0.933 | 0.878 | 0.767 | 0.908 | 0.93 | 0.91 | 0.837 | 0.737 | 0.711 | 0.886 | 0.772 | 0.819 |
| A549 | – | – | – | – | 0.303 | 0.251 | 0.575 | 0.0626 | 0.465 | 1.1 | 0.895 | 1.06 | 0.924 | 0.53 | 0.509 | 0.654 | 0.575 | 0.548 |
| NCI-H1703 | – | – | – | – | 0.374 | 0.476 | 0.348 | – | 0.463 | 1.24 | 0.982 | 0.85 | 0.847 | 0.541 | 0.253 | 0.253 | 0.21 | 0.22 |
| NCI-H522 | 0.949 | 1.1 | 0.945 | 1.02 | 0.591 | 0.684 | 0.657 | 0.658 | 0.629 | – | – | – | – | – | – | – | – | – |
| Calu-6 | – | – | – | – | 0.602 | 0.592 | 0.547 | 0.533 | 0.45 | 1.09 | 1.08 | 1.1 | 0.902 | 0.832 | 0.843 | 1.02 | 0.971 | 0.904 |
| ChaGo-K-1 | 0.928 | 0.939 | 0.943 | 0.923 | 0.418 | 0.426 | 0.414 | 0.438 | 0.345 | – | – | – | – | – | 0.51 | 0.978 | 0.431 | 0.681 |
| LCLC-103H | 0.45 | 0.407 | 0.485 | 0.481 | 0.8 | 0.748 | 0.769 | 0.827 | 0.628 | – | – | – | – | – | 0.499 | 0.61 | 0.617 | 0.64 |
| NCI-H441 | 0.227 | 0.222 | 0.251 | 0.22 | 0.544 | 0.505 | 0.539 | 0.562 | 0.35 | – | – | – | – | – | 0.462 | 0.455 | 0.428 | 0.491 |
